From patent US20120122727A1, “IN VITRO METHOD FOR PREDICTING WHETHER A COMPOUND IS GENOTOXIC IN VIVO” (priority 2009, published 2012)

System: primary mouse hepatocytes
Assay: Gene expression (Affymetrix Mouse Genome 430 2.0) in primary mouse hepatocytes, true vs false GTX, 24 h and 48 h
Conditions: log2, corrected for vehicle control

Nc1ccccc1C(=O)O [ANAC, o-Anthranilic acid]
Gene expression data AF000969 (Cadps2) (24 h average): −0.12 | Gene expression data AF022072 (Grb10) (24 h average): 0.4544 | Gene expression data AF065917 (Lif) (24 h average): −0.2023 | Gene expression data AF204959 (Cyp3a25 /// LOC622249) (24 h average): −0.28 | Gene expression data AF297615 (Ggta1) (24 h average): 0.03103 | Gene expression data AI594683 (Dmn) (24 h average): −0.2163 | Gene expression data AI596632 (Ptprg /// LOC632664) (24 h average): 0.1214 | Gene expression data AI987929 (Ndrg1) (24 h average): 0.6977 | Gene expression data AK004419 (Fbxl17) (24 h average): −0.01793 | Gene expression data AK005731 (1700007K13Rik) (24 h average): −0.1733 | Gene expression data AK007766 (1810044A24Rik) (24 h average): −0.05167 | Gene expression data AK007854 (1810053B23Rik) (24 h average): −0.4283 | Gene expression data AK009736 (Gpr137b /// LOC664862 /// LOC673335) (24 h average): −0.0957 | Gene expression data AK010447 (Smyd3) (24 h average): −0.1211 | Gene expression data AK014608 (4632434l11Rik) (24 h average): −0.1768 | Gene expression data AK019979 (2610528E23Rik) (24 h average): 0.1139 | Gene expression data AV095209 (Mthfd1l) (24 h average): 0.3162 | Gene expression data AV141095 (1110033M05Rik) (24 h average): −0.1293 | Gene expression data AV173571 (1700106N22Rik) (24 h average): −0.1574 | Gene expression data AV219418 (Ldhb) (24 h average): −0.2907 | Gene expression data AV223474 (Zdhhc14) (24 h average): −0.07347 | Gene expression data AV298304 (Homez) (24 h average): −0.0861 | Gene expression data AV327248 (Zfp365 /// LOC674611) (24 h average): 0.0212 | Gene expression data AV377066 (9130221J18Rik) (24 h average): −0.2482 | Gene expression data AW240761 (Tbc1d5) (24 h average): 0.001667 | Gene expression data AW543460 (Pard3) (24 h average): 0.06037 | Gene expression data AW543723 (24 h average): 0.2943 | Gene expression data AW986246 (Maoa) (24 h average): 0.01683 | Gene expression data BB027848 (4732466D17Rik) (24 h average): −0.03697 | Gene expression data BB043558 (9230114K14Rik) (24 h average): −0.1292 | Gene expression data BB275142 (AW456874) (24 h average): 0.02823 | Gene expression data BB308836 (Ppm1l) (24 h average): −0.0317 | Gene expression data BB318221 (Zdhhc14) (24 h average): 0.0002333 | Gene expression data BB463610 (4632434l11Rik) (24 h average): −0.3672 | Gene expression data BB526605 (Mipol1) (24 h average): 0.3407 | Gene expression data BB770528 (Rai2) (24 h average): −0.08327 | Gene expression data BB821363 (Scfd2) (24 h average): −0.084 | Gene expression data BC004827 (Psat1) (24 h average): 0.3937 | Gene expression data BC008626 (Icam1) (24 h average): −0.2705 | Gene expression data BC010462 (BC010462) (24 h average): −0.4089 | Gene expression data BC012247 (Dcxr) (24 h average): −0.0311 | Gene expression data BC012260 (Psmf1) (24 h average): −0.1838 | Gene expression data BC015270 (Hist2h3c2) (24 h average): 0.1186 | Gene expression data BC016073 (Cdkal1) (24 h average): 0.0051 | Gene expression data BC016265 (Ube2e2) (24 h average): 0.01507 | Gene expression data BC019882 (Acaa1b) (24 h average): 1.0984 | Gene expression data BC025501 (Aaas) (24 h average): −0.2261 | Gene expression data BC025837 (Sbk1) (24 h average): −0.3033 | Gene expression data BC025915 (Cova1) (24 h average): −0.05383 | Gene expression data BC026422 (Tgm1) (24 h average): 0.0232 | Gene expression data BF719766 (Thyn1) (24 h average): −0.1153 | Gene expression data BG065754 (Ccng1) (24 h average): −0.08917 | Gene expression data BG066903 (Kif16b) (24 h average): 0.0241 | Gene expression data BG069873 (Gnb1l) (24 h average): −0.2107 | Gene expression data BG070887 (Gtdc1) (24 h average): −0.05163 | Gene expression data BG076151 (Ppm1d) (24 h average): −0.08637 | Gene expression data BG261907 (Large) (24 h average): 0.09293 | Gene expression data BI651416 (Cdc42bpg) (24 h average): 0.01387 | Gene expression data BI660702 (Ell3) (24 h average): −0.1539 | Gene expression data BM198879 (Ercc5) (24 h average): −0.2194 | Gene expression data BM230508 (A030007D23Rik) (24 h average): −0.1178 | Gene expression data NM_007987 (Fas) (24 h average): −0.1337 | Gene expression data NM_008522 (Ltf) (24 h average): 0.0771 | Gene expression data NM_008576 (Abcc1) (24 h average): 0.3586 | Gene expression data NM_011176 (St14) (24 h average): −0.1445 | Gene expression data NM_011316 (Saa4) (24 h average): −0.1988 | Gene expression data NM_012006 (Acot1) (24 h average): 1.862 | Gene expression data NM_013866 (Zfp385) (24 h average): −0.1953 | Gene expression data NM_018770 (Igsf4a) (24 h average): −0.08853 | Gene expression data NM_021451 (Pmaip1) (24 h average): 0.01303 | Gene expression data NM_025770 (Atg10) (24 h average): −0.01263 | Gene expression data NM_028803 (Gbe1) (24 h average): −0.0826 | Gene expression data NM_030697 (Ankrd47) (24 h average): −0.1623 | Gene expression data NM_053168 (Trim11) (24 h average): −0.201 | Gene expression data NM_134188 (Acot2) (24 h average): 0.8696 | Gene expression data Y15910 (Diap2) (24 h average): 0.06533 | Gene expression AA561726 average (48 h): 0.3194 | Gene expression AF000969 average (48 h): −0.5599 | Gene expression AF022072 average (48 h): 0.5563 | Gene expression AF033112 average (48 h): 0.1422 | Gene expression AF055573 average (48 h): −0.1687 | Gene expression AF069954 average (48 h): −0.3847 | Gene expression AF297615 average (48 h): 0.111 | Gene expression AF335325 average (48 h): −0.0865 | Gene expression AI594683 average (48 h): −0.5224 | Gene expression AI747296 average (48 h): −0.0394 | Gene expression AK005731 average (48 h): −0.6498 | Gene expression AK007854 average (48 h): −0.2242 | Gene expression AK010447 average (48 h): −0.1083 | Gene expression AK010738 average (48 h): −0.06687 | Gene expression AK014608 average (48 h): −0.455 | Gene expression AK017734 average (48 h): −0.5275 | Gene expression AK018383 average (48 h): −0.0203 | Gene expression AK019979 average (48 h): 0.04547 | Gene expression AV095209 average (48 h): 0.2956 | Gene expression AV141095 average (48 h): −0.0311 | Gene expression AV173869 average (48 h): −0.005067 | Gene expression AV216768 average (48 h): 0.4153 | Gene expression AV219418 average (48 h): 0.1539 | Gene expression AV221299 average (48 h): 0.1649 | Gene expression AV246296 average (48 h): −0.1054 | Gene expression AV251625 average (48 h): 0.0423 | Gene expression AV254764 average (48 h): −0.265 | Gene expression AV327248 average (48 h): 0.0856 | Gene expression BB009155 average (48 h): −0.4697 | Gene expression BB027848 average (48 h): −0.2609 | Gene expression BB043558 average (48 h): −0.188 | Gene expression BB046347 average (48 h): −0.1072 | Gene expression BB140436 average (48 h): −0.07237 | Gene expression BB204486 average (48 h): 0.3188 | Gene expression BB223872 average (48 h): −0.4287 | Gene expression BB246912 average (48 h): −0.1992 | Gene expression BB275142 average (48 h): −0.2874 | Gene expression BB458460 average (48 h): 0.007967 | Gene expression BB463610 average (48 h): −0.2186 | Gene expression BB730977 average (48 h): 0.7532 | Gene expression BB743970 average (48 h): 0.1551 | Gene expression BB770528 average (48 h): −0.001733 | Gene expression BB781615 average (48 h): −0.2937 | Gene expression BC003284 average (48 h): −0.2108 | Gene expression BC004827 average (48 h): 0.3756 | Gene expression BC005552 average (48 h): 0.3056 | Gene expression BC006713 average (48 h): −0.1305 | Gene expression BC010318 average (48 h): 0.1353 | Gene expression BC012247 average (48 h): −0.5319 | Gene expression BC012955 average (48 h): −0.2554 | Gene expression BC013893 average (48 h): −0.5709 | Gene expression BC017615 average (48 h): 0.06827 | Gene expression BC019379 average (48 h): 0.0072 | Gene expression BC019882 average (48 h): 0.1948 | Gene expression BC021352 average (48 h): 0.06563 | Gene expression BC022148 average (48 h): −0.1976 | Gene expression BC025169 average (48 h): −0.0788 | Gene expression BC026131 average (48 h): 0.0392 | Gene expression BC027026 average (48 h): −0.007933 | Gene expression BC027121 average (48 h): −0.1424 | Gene expression BC027185 average (48 h): −0.2381 | Gene expression BE956581 average (48 h): 0.04267 | Gene expression BF719766 average (48 h): 0.07637 | Gene expression BG065754 average (48 h): 0.0641 | Gene expression BG066491 average (48 h): −0.061 | Gene expression BG076151 average (48 h): −0.241 | Gene expression BG076333 average (48 h): 0.2383 | Gene expression BG797099 average (48 h): −0.02097 | Gene expression BG967046 average (48 h): −0.2562 | Gene expression BI651416 average (48 h): −0.1051 | Gene expression BI966443 average (48 h): 0.07723 | Gene expression BM198879 average (48 h): −0.1608 | Gene expression BM200015 average (48 h): 0.009533 | Gene expression BM230508 average (48 h): −0.471 | Gene expression BM936480 average (48 h): −0.04323 | Gene expression BQ174991 average (48 h): 0.4039 | Gene expression L21027 average (48 h): 0.3857 | Gene expression NM_007556 average (48 h): 0.5247 | Gene expression NM_007980 average (48 h): 0.1776 | Gene expression NM_007987 average (48 h): −0.005833 | Gene expression NM_008522 average (48 h): −0.06957 | Gene expression NM_008935 average (48 h): 0.3779 | Gene expression NM_009897 average (48 h): 0.09963 | Gene expression NM_011075 average (48 h): 0.3891 | Gene expression NM_011176 average (48 h): −0.4607 | Gene expression NM_011316 average (48 h): −0.4717 | Gene expression NM_012006 average (48 h): 1.5971 | Gene expression NM_013642 average (48 h): 0.3286 | Gene expression NM_013738 average (48 h): −0.3378 | Gene expression NM_013929 average (48 h): −0.006633 | Gene expression NM_018881 average (48 h): 0.08383 | Gene expression NM_019738 average (48 h): −0.6326 | Gene expression NM_030697 average (48 h): −0.6238 | Gene expression NM_053122 average (48 h): −0.04513 | Gene expression NM_134147 average (48 h): −0.2207 | Gene expression NM_134188 average (48 h): 0.2382 | Gene expression X62701 average (48 h): 0.7542
